IC50 and Ke data for ten compounds are collected here from ChEMBL document CHEMBL1124814 (J Med Chem, 1990).

For experiment [1], the target named is Kappa-type opioid receptor (Cavia porcellus, UniProt P41144). Put plainly: Binding affinity against Opioid receptor kappa 1 in guinea pig brain homogenate using [3H]- U-69593 as radioligand. The format is tissue-based.
In experiment [2] the target is T1, Opioid receptor (Mus musculus) (UniProt P42866+P32300+P33534). Put plainly: Opioid receptors antagonist activity in smooth-muscle tissue mouse vas deferens (MVD) in presence of NLX. The format is functional, tissue-based.
The target of experiment [3] is T2, Opioid receptors; mu/kappa/delta (Homo sapiens, UniProt P41145+P41143+P35372). The note with it: Cavia porcellus; Ileum.
Description: Opioid receptors antagonist activity in smooth-muscle tissue of guinea pig ileum (GPI) in presence of CTAP
Experiment [4] deals with T2, Opioid receptors; mu/kappa/delta. In words: Opioid receptors antagonist activity in smooth-muscle tissue of guinea pig ileum (GPI). In kind it is functional, tissue-based, Cavia porcellus. The note with it: target entry is the homologue from another species.
For experiment [5] the target is unchanged. The following applies: Cavia porcellus; Ileum. The source holds these as a separate data set.
Description: Opioid receptors antagonist activity in smooth-muscle tissue of guinea pig ileum (GPI) in presence of NLX
The next experiment has as its target Mu-type opioid receptor (Cavia porcellus, UniProt P97266). In words: Binding affinity against Opioid receptor mu 1 in guinea pig brain homogenate using [3H]- PL-17 as radioligand. The format is tissue-based.
The target in the next experiment is Opioid receptor (Mus musculus, UniProt P42866+P32300+P33534). Put plainly: Opioid receptors antagonist activity in smooth-muscle tissue mouse vas deferens (MVD). In kind it is functional, tissue-based.
Experiment [6] concerns the target T1, Opioid receptor (Mus musculus). Put plainly: Opioid receptors antagonist activity in smooth-muscle tissue mouse vas deferens (MVD) in presence of ICI. The format is functional, tissue-based.
For experiment [7] the target is unchanged. In words: Opioid receptors antagonist activity in smooth-muscle tissue mouse vas deferens (MVD) in presence of CTAP. In kind it is functional, tissue-based.

The structures appear in SMILES notation. Positions of bridges follow the written chain, without caps; N, C: chain ends. Residues, ends and D or L forms follow the SMILES beside them.

T2 sequence (P35372 whole entry, looked up): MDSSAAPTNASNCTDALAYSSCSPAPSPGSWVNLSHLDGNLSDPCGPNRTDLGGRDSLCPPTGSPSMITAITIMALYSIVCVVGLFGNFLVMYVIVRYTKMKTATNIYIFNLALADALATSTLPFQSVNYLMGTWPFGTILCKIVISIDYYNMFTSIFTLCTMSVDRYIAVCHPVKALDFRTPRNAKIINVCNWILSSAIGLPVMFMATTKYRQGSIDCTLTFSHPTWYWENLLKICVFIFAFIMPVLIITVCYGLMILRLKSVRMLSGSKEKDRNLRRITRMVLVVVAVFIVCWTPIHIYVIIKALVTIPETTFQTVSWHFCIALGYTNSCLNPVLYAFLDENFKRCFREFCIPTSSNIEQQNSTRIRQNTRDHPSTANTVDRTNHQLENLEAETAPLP
T2 sequence (P41143 whole entry, looked up): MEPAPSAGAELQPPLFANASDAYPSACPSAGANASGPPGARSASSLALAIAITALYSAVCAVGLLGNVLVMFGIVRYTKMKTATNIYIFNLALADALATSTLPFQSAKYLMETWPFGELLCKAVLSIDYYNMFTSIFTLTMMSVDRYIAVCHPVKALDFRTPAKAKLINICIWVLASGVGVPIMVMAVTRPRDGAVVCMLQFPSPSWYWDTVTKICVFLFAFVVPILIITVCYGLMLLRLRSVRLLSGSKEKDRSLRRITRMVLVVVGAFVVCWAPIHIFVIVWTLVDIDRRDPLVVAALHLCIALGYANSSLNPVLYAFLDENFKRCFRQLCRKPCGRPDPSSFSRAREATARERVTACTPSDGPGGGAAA
T2 sequence (P41145 whole entry, looked up): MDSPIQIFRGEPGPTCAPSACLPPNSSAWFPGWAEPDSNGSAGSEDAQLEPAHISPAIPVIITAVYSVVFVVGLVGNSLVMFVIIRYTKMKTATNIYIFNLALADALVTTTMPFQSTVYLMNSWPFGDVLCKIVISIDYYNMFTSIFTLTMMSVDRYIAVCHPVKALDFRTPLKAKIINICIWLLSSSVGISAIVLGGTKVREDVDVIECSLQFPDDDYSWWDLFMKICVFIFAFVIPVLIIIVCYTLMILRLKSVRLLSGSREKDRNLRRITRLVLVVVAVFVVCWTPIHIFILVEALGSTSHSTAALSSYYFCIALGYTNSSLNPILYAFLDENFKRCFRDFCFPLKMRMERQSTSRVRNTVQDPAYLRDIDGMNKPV
T1 sequence (P32300 whole entry, looked up): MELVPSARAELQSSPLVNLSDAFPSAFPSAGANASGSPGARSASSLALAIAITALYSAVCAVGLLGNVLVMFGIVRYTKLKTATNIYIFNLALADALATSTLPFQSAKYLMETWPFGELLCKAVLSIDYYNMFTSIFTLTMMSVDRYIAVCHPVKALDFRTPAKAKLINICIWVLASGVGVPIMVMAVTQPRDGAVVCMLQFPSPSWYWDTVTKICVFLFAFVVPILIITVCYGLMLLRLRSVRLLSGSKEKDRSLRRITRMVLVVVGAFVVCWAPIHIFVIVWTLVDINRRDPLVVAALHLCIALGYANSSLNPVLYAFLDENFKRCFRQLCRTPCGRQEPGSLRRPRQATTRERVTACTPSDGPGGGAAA
T1 sequence (P33534 whole entry, looked up): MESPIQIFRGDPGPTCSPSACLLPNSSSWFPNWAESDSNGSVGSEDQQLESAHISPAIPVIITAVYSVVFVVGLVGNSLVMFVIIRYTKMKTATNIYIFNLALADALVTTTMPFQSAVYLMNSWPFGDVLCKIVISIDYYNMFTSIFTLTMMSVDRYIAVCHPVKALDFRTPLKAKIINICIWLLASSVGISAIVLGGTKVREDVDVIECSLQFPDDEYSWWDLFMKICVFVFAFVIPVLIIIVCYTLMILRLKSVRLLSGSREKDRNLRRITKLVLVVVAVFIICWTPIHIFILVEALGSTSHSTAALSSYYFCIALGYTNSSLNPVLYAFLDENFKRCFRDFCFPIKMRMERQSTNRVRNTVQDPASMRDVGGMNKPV
T1 sequence (P42866 whole entry, looked up): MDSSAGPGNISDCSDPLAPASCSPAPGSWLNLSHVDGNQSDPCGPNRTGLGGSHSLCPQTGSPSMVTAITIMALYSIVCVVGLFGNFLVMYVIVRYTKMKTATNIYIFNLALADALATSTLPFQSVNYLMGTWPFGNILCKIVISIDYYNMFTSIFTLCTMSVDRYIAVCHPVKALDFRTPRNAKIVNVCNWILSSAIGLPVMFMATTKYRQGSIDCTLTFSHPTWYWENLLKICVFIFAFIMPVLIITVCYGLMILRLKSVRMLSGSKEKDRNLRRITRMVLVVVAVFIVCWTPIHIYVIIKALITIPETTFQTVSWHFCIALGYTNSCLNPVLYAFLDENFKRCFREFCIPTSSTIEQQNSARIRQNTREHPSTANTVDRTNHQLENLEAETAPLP
Sequence of Kappa-type opioid receptor (P41144 whole entry): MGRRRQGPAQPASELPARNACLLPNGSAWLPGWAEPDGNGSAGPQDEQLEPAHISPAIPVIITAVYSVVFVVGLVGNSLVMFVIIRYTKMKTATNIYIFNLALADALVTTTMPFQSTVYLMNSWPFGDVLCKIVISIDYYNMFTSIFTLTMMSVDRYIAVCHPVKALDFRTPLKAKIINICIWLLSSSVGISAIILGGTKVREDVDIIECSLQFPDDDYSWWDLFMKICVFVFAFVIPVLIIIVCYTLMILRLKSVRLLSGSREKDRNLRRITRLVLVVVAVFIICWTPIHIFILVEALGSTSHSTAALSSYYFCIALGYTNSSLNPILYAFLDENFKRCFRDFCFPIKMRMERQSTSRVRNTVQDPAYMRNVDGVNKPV
Sequence of Mu-type opioid receptor (P97266 whole entry): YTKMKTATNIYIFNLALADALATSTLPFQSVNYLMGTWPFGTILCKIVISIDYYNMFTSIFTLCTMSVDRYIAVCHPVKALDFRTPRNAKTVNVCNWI

For the compound `CC[C@H](C)[C@H](NC(=O)[C@H](CCCN=C(N)N)NC(=O)[C@H](CCCN=C(N)N)NC(=O)[C@H](CC(C)C)NC(=O)[C@H](Cc1ccccc1)NC(=O)CNC(=O)CNC(=O)[C@@H](N)Cc1ccc(O)cc1)C(=O)N[C@@H](CCCN=C(N)N)C(=O)N1CCC[C@H]1C(=O)N[C@@H](CCCCN)C(=O)N[C@@H](CC(C)C)C(=O)N[C@@H](CCCCN)C(N)=O`, the IC50 came to 0.114 nM in [1], 1.7 nM in [4], 1.29 nM on Mu-type opioid receptor and 7.8 nM against Opioid receptor. Besides, the Ke in [2] was 100 nM; in experiment [3], 2000 nM; in experiment [5], 82 nM.
On to `CC(C)C[C@@H]1NC(=O)[C@H](CCCCN)NC(=O)[C@@H]2CCCN2C(=O)[C@H](CCCN=C(N)N)NC(=O)[C@H](NC(=O)[C@H](CCCN=C(N)N)NC(=O)[C@H](CCCN=C(N)N)NC(=O)[C@H](CC(C)C)NC(=O)[C@H](Cc2ccccc2)NC(=O)CNC(=O)CNC(=O)[C@@H](N)Cc2ccc(O)cc2)CSSC[C@@H](C(N)=O)NC1=O`, for which the Ke was found to be 667 nM in experiment [6], 30.3 nM in [2], 370 nM in experiment [7] and 32.3 nM in experiment [5]. Further, the results for the IC50 (in [4]; on Opioid receptor) were 2.27 nM and 24.5 nM, respectively.
For `CC[C@H](C)[C@H](NC(=O)[C@H](CCCNC(=N)N)NC(=O)[C@H](CCCNC(=N)N)NC(=O)[C@H](CC(C)C)NC(=O)[C@H](Cc1ccccc1)NC(=O)CNC(=O)CNC(=O)[C@@H](N)Cc1ccc(O)cc1)C(=O)N[C@@H](CCCNC(=N)N)C(=O)N1CCC[C@H]1C(=O)N[C@@H](CCCCN)C(=O)N[C@@H](CC(C)C)C(=O)N[C@@H](CCCCN)C(=O)N[C@@H](Cc1c[nH]c2ccccc12)C(=O)N[C@@H](CC(=O)O)C(=O)N[C@@H](CC(N)=O)C(=O)N[C@@H](CCC(N)=O)C(=O)O` [DYNORPHIN A (1-17)], the IC50 in [1] was determined as 0.231 nM.
As for `CC[C@H](C)[C@H](NC(=O)[C@H](CCCN=C(N)N)NC(=O)[C@H](CCCN=C(N)N)NC(=O)[C@H](CC(C)C)NC(=O)[C@H](Cc1ccccc1)NC(=O)CNC(=O)CNC(=O)[C@@H](N)Cc1ccc(O)cc1)C(=O)N[C@@H](CCCN=C(N)N)C(=O)N1CCC[C@H]1C(=O)N[C@@H](CCCCN)C(N)=O`, the Ke is 625 nM in [6] and 125 nM in experiment [2]. In addition, the IC50 came to 7.5 nM in experiment [4], 1.08 nM at Mu-type opioid receptor and 204 nM against Opioid receptor.
Take `CC(C)C[C@H](NC(=O)[C@H](Cc1ccccc1)NC(=O)CNC(=O)CNC(=O)[C@@H](N)Cc1ccc(O)cc1)C(=O)N[C@@H](CCCN=C(N)N)C(=O)N[C@@H](CCCN=C(N)N)C(=O)N[C@@H]1CSSC[C@H](C(N)=O)NC(=O)[C@H](CC(C)C)NC(=O)[C@H](CCCCN)NC(=O)[C@@H]2CCCN2C(=O)[C@H](CCCN=C(N)N)NC1=O`: the Ke came out at 1000 nM in [6], 18.2 nM in [2], 1430 nM in experiment [7] and 233 nM in experiment [5]. Moreover, the figures for the IC50 (in experiment [4]; at Mu-type opioid receptor; at Opioid receptor) were 1.75 nM, 0.362 nM and 19.5 nM, respectively.
As for `C[C@H]1NC(=O)[C@H](CCCNC(=N)N)NC(=O)[C@H](CCCNC(=N)N)NC(=O)[C@@H](NC(=O)[C@H](Cc2ccccc2)NC(=O)CNC(=O)CNC(=O)[C@@H](N)Cc2ccc(O)cc2)CSSC[C@@H](C(N)=O)NC(=O)[C@@H]2CCCN2C(=O)[C@H](CCCNC(=N)N)NC1=O`, the values for the IC50 (in experiment [1]; at Mu-type opioid receptor) were 0.391 nM and 2.3 nM, respectively.
Take `CC(C)C[C@@H]1NC(=O)[C@H](CCCCN)NC(=O)[C@@H]2CCCN2C(=O)[C@H](CCCNC(=N)N)NC(=O)[C@H](NC(=O)[C@H](CCCNC(=N)N)NC(=O)[C@H](CCCNC(=N)N)NC(=O)[C@H](CC(C)C)NC(=O)[C@H](Cc2ccccc2)NC(=O)CNC(=O)CNC(=O)[C@@H](N)Cc2ccc(O)cc2)CSSC[C@@H](C(N)=O)NC1=O`: the figures for the IC50 (in experiment [1]; at Mu-type opioid receptor) were 1.76 nM and 10.3 nM, respectively.
With `CC(C)C[C@@H]1NC(=O)[C@H](CCCCN)NC(=O)[C@@H]2CCCN2C(=O)[C@H](CCCN=C(N)N)NC(=O)[C@@H](NC(=O)[C@H](CCCN=C(N)N)NC(=O)[C@H](CCCN=C(N)N)NC(=O)[C@H](CC(C)C)NC(=O)[C@H](Cc2ccccc2)NC(=O)CNC(=O)CNC(=O)[C@@H](N)Cc2ccc(O)cc2)CSSC[C@@H](C(N)=O)NC1=O`, the IC50 stood at 0.074 nM in [1], 1.3 nM in [4], 0.986 nM at Mu-type opioid receptor and 20.1 nM at Opioid receptor. For the same compound, the Ke in experiment [6] came to 156 nM; in experiment [2], 95.2 nM; in experiment [7], 175 nM; in experiment [5] it was 38.9 nM.
As for `CC[C@H](C)[C@@H]1NC(=O)[C@H](CCCN=C(N)N)NC(=O)[C@H](CCCN=C(N)N)NC(=O)[C@@H](NC(=O)[C@H](Cc2ccccc2)NC(=O)CNC(=O)CNC(=O)[C@@H](N)Cc2ccc(O)cc2)CSSC[C@@H](C(N)=O)NC(=O)[C@@H]2CCCN2C(=O)[C@H](CCCN=C(N)N)NC1=O` (H-YGGFCRRIRPC-NH2; disulfide 5-11), the IC50 worked out at 0.285 nM in experiment [1], 1080 nM in experiment [4], 0.027 nM at Mu-type opioid receptor and 421 nM on Opioid receptor. The Ke in experiment [6] was determined as 86.2 nM; in experiment [2] it was 80 nM; in [7] it was 2000 nM; in [5] it was 66.7 nM.
Turning to `C[C@H]1NC(=O)[C@H](CCCN=C(N)N)NC(=O)[C@H](CCCN=C(N)N)NC(=O)[C@@H](NC(=O)[C@H](Cc2ccccc2)NC(=O)CNC(=O)CNC(=O)[C@@H](N)Cc2ccc(O)cc2)CSSC[C@@H](C(N)=O)NC(=O)[C@@H]2CCCN2C(=O)[C@H](CCCN=C(N)N)NC1=O`, the Ke in experiment [6] is 21.3 nM; in experiment [3], 50 nM; in experiment [7], 500 nM. The IC50 was determined as 4406 nM in [4] and 1660 nM at Opioid receptor.
